In ChEMBL document CHEMBL1131947, “Syntheses and biological activities of bis(3-indolyl)thiazoles, analogues of marine bis(indole)alkaloid nortopsentins” (1999):

Assays:
Assay type in all cases: functional
[1] = test system: NCI-H23; assay: In vitro growth inhibitory activity against human NCI-H23 cancer cell line
[2] = test system: MOLT-4; assay: In vitro growth inhibitory activity against human MOLT-4 cancer cell line
[3] = test system: K562; assay: In vitro growth inhibitory activity against human K-562 cancer cell line
[4] = test system: HCT-15; assay: In vitro growth inhibitory activity against human HCT-15 cancer cell line
[5] = test system: SF-295; assay: In vitro growth inhibitory activity against human SF-295 cancer cell line
[6] = test system: MCF7; assay: In vitro growth inhibitory activity against human MCF-7 cancer cell line
[7] = test system: SR; assay: In vitro growth inhibitory activity against human SR cancer cell line
[8] = test system: MDA-N; assay: In vitro growth inhibitory activity against human MDA-N cancer MDA-N cell line

Compound | GI50 [1] | GI50 [2] | GI50 [3] | GI50 [4] | GI50 [5] | GI50 [6] | GI50 [7] | GI50 [8]
Brc1ccc2c(-c3nc(-c4c[nH]c5ccccc45)cs3)c[nH]c2c1 | 25.8 µM | 31.2 µM | 5.61 µM | 17.8 µM | 9.23 µM | 27.2 µM | 12.2 µM | 31.5 µM
Brc1ccc2c(-c3csc(-c4c[nH]c5ccccc45)n3)c[nH]c2c1 | 14.5 µM | 19.9 µM | 18.8 µM | 15.2 µM | 14.6 µM | 16.7 µM | 6.36 µM | 19.2 µM
c1ccc2c(-c3csc(-c4c[nH]c5ccccc45)n3)c[nH]c2c1 | > 100 µM | 5.31 µM | 3.27 µM | > 100 µM | 33.6 µM | > 100 µM | 1.77 µM | 83 µM
Brc1ccc2c(-c3csc(-c4c[nH]c5cc(Br)ccc45)n3)c[nH]c2c1 | 14.1 µM | 5.8 µM | 4.69 µM | 8.5 µM | 4.81 µM | 6.46 µM | 3.4 µM | 2.94 µM
